Measured values from patent US11168134B2, “Methods of treating androgen deprivation therapy resistant prostate cancer” (Fondazione per l'Istituto Oncologico di Ricerca (IOR), priority 2018, dated 2021).

What was measured:
TRAMP-C1 cells [1] = assay: In vitro culture of prostate cancer cells under full androgen deprivation (F.A.D.); format: cell-based, mouse
Protocol: Prostate cancer cell lines were starved in Charcoal Stripped FBS (CS-FBS) medium for 72 h and then cultured with RPMI 1640 containing 10% heat-inactivated FBS (normal medium) or kept in full androgen deprivation medium (RPMI 1640 containing 10% heat-inactivated Charcoal Stripped-FBS plus Enzalutamide 10 μM; F.A.D.). Then, the cells were stimulated with or without condition media obtained from activated BM-derived MDSCs, or recombinant IL23 (100 ng/ml; R&D System), with or without αRORγ (5 μM; SR2211; Calbiochem®). Then, the cells were analyzed for Crystal Violet assay or stained with Annexin V/7AAD or collected for RNA extraction.
RNA isolation (TRIzol, Qiagen) and retro-transcription with SuperScriptIII (Invitrogen, 11752-250) were performed according to the manufacturer's instructions. Quantitative PCR (qPCR) reactions (Bio-Rad) were performed using KAPA SYBR FAST qPCR green (KK4605; Applied Biosystems) and the specific primers reported below. Primer sequences were obtained from PrimerBank (http://pga.mgh.harvard.edu/primerbank/index.html) or BIORAD. Each expression value was normalized by HPRT or GADPH level as reference.

[2] = test system: prostate tumors of CTX Pten^pc−/− mice; assay: CXCR2 antagonist treatment of surgically castrated Pten^pc−/− mice; format: in vivo, mouse
Protocol: All mice were maintained under specific pathogen-free conditions in the IRB facility and experiments were performed according to state guidelines and approved by the local ethics committee. Male C57BL/6 or FVB mice 6-8 weeks of age were purchased from Jackson Laboratories (Envigo), and acclimated for at least a week before use. C57BL/6 IL-23p19KO (IL23ko) mice were kindly provided by Prof. Federica Sallusto (IRB, Bellinzona). Pten^pc−/− mice were generated and genotyped as previously described. […] Mice were monitored postoperatively for recovery from anesthesia and checked daily for 2 days postoperatively. […] Tumor growth was monitored daily by measuring the tumor size with caliper. […]
Tumors were disaggregated and digested in collagenase D and DNAse for 30 minutes at 37° C. to obtain single-cell suspension. […] Data were analyzed using FlowJo software (TreeStar, Ashland, Oreg.).
(§1) RNA isolation (TRIzol, Qiagen) and retro-transcription with SuperScriptIII (Invitrogen, 11752-250) were performed according to the manufacturer's instructions. Quantitative PCR (qPCR) reactions (Bio-Rad) were performed using KAPA SYBR FAST qPCR green (KK4605; Applied Biosystems) and the specific primers reported below. […]

TRAMP-C1 cells [3] = assay: CXCR2 antagonist treatment of castrated TRAMP-C1 allograft mice; format: in vivo, mouse
Protocol: (§2) All mice were maintained under specific pathogen-free conditions in the IRB facility and experiments were performed according to state guidelines and approved by the local ethics committee. Male C57BL/6 or FVB mice 6-8 weeks of age were purchased from Jackson Laboratories (Envigo), and acclimated for at least a week before use. C57BL/6 IL-23p19KO (IL23ko) mice were kindly provided by Prof. Federica Sallusto (IRB, Bellinzona). Pten^pc−/− mice were generated and genotyped as previously described. Female Pten^loxP/loxP mice were crossed with male PB-Cre4 transgenic mice and genotyped for Cre using following primers: primer 1 (5′-[…]-3′) and primer 2 (5′-[…]-3′) for PTEN^loxP/loxP; primer 1 (5′ […] 3′) and primer 2 (5′CAGCCACCAGCTTGCATGA 3′) for Probasin-CRE. Surgical castration was performed under anesthesia with isoflurane. Mice were monitored postoperatively for recovery from anesthesia and checked daily for 2 days postoperatively. Surgical skin clips were removed on postoperative day 5. Mice undergoing treatment were administered control vehicle or therapeutic doses of the appropriate agents. Any mouse suffering distress or greater than 15% weight loss during treatment was euthanized by CO2 asphyxiation. At the completion of study, mice were euthanized by CO2 asphyxiation and tissue was collected for histology, mRNA analysis, protein analysis, and single cell suspensions for flow cytometry. For allograft experiments, 2.5×10^6 TRAMP-C1 cells, 2.5×10^6 TRAMP-C1 IL23RKO, or 2×10^6 MyC-CaP cells were injected subcutaneously into the flank of male respectively C57BL/6 or FVB mice. When tumors were approximately 100 mm^3, mice were randomized to the treatment groups. Tumor growth was monitored daily by measuring the tumor size with caliper. The tumor volume was estimated by calculating R1*R2*R3*4/3π, where R1 and R2 are the longitudinal and lateral radii, and R3 is the thickness of tumor protruding from the surface of normal skin. Animals were sacrificed when the tumor reached approximately 600 mm^3.
(§3) αCXCR2 (AZD5069; AstraZeneca) was administered with daily intraperitoneal injections at a final concentration of 100 mg/kg on a Monday through Friday schedule. Control animals received vehicle. Enzalutamide (APExBio) was administered daily by oral gavage with a dose of 30 mg/kg/day on a Monday through Friday schedule. Rat anti-IL23 antibody (100 ng per mouse; G23-8; IgG1, kappa; eBioscience) or rat IgG1 isotype control (eBioscience) were administered weekly via intraperitoneal injection.
(§4) Tumors were disaggregated and digested in collagenase D and DNAse for 30 minutes at 37° C. to obtain single-cell suspension. For intracellular cytokine detection cells where stimulated for 5 hours with PMA/ionomycin. After neutralization of unspecific binding with αCD16/CD32 (clone 93), single-cell suspensions were stained with specific mAb (primary antibodies directly conjugated) to assess the phenotype. […] Data were analyzed using FlowJo software (TreeStar, Ashland, Oreg.).
as §1

MyC-CaP cells = assay: CXCR2 antagonist treatment of castrated MyC-CaP allograft mice; format: in vivo, mouse
Protocol: as §2, §3, §4, §1

[4] = test system: castration resistant prostate tumors of Pten^pc−/− mice; assay: Preclinical trial in castration-resistant Pten^pc−/− mice (αIL23, ENZA, ENZA+αIL23); format: in vivo, mouse; conditions: ENZA 30 mg/kg/day oral alone
Protocol: All mice were maintained under specific pathogen-free conditions in the IRB facility and experiments were performed according to state guidelines and approved by the local ethics committee. Male C57BL/6 or FVB mice 6-8 weeks of age were purchased from Jackson Laboratories (Envigo), and acclimated for at least a week before use. C57BL/6 IL-23p19KO (IL23ko) mice were kindly provided by Prof. Federica Sallusto (IRB, Bellinzona). Pten^pc−/− mice were generated and genotyped as previously described. Female Pten^loxP/loxP mice were crossed with male PB-Cre4 transgenic mice and genotyped for Cre using following primers: primer 1 (5′-[…]-3′) and primer 2 (5′-[…]-3′) for PTEN^loxP/loxP; primer 1 (5′ […] 3′) and primer 2 (5′CAGCCACCAGCTTGCATGA 3′) for Probasin-CRE. Surgical castration was performed under anesthesia with isoflurane. Mice were monitored postoperatively for recovery from anesthesia and checked daily for 2 days postoperatively. Surgical skin clips were removed on postoperative day 5. […] Tumor growth was monitored daily by measuring the tumor size with caliper. […]
For immunohistochemistry (IHC), tissues were fixed in 10% formalin (ThermoScientific, 5701) and embedded in paraffin in accordance with standard procedures. […] All the quantifications have been done using the public online software ImmunoRatio (153.1.200.58:8080/iimunoratio/). […]

For `C[C@@H](Oc1cc(NS(=O)(=O)N2CCC2)nc(SCc2cccc(F)c2F)n1)[C@@H](O)CO` [AZD5069], the “AR activity (AR target genes, qRT-PCR)” value (TRAMP-C1 cells [1]; TRAMP-C1 cells in F.A.D., 24 h of treatment with CXCR2 antagonist (FIG. 6i)) was “did not directly affect”, the cell proliferation (TRAMP-C1 cells [1]; TRAMP-C1 cells in F.A.D., 72 h of treatment with CXCR2 antagonist (FIG. 6h)) was “did not directly affect” and the “tumor infiltration of PMN-MDSCs” value ([2]; AZD5069 100 mg/kg i.p. daily Monday-Friday, flow cytometry (FIG. 6f)) was “strongly reduced the tumor infiltration of PMN-MDSCs”. The “progression to CRPC” value ([2]; judged by tumor volume and levels of AR target genes, untreated mice developed CRPCs four months after castration) was “did not progress to CRPCs”, the “tumor infiltration of PMN-MDSCs” value (TRAMP-C1 cells [3]; castrated C57BL/6 mice with s.c. TRAMP-C1 tumors, AZD5069 100 mg/kg i.p., flow cytometry (FIG. 7a)) was “strongly reduced the tumor infiltration of PMN-MDSCs” and the “emergence of CRPC” value (TRAMP-C1 cells [3]; castrated TRAMP-C1 allograft mice) was “delayed the emergence of CRPC”. The tumor size (TRAMP-C1 cells [3]; castrated TRAMP-C1 allograft mice (FIG. 7c)) was “decreased tumor size”, the survival (TRAMP-C1 cells [3]; castrated TRAMP-C1 allograft mice, Kaplan-Meier (FIG. 7d)) was “longer survival” and the “level of AR target genes in tumors” value (TRAMP-C1 cells [3]; castrated TRAMP-C1 allograft mice, qRT-PCR (FIG. 7b)) was “decreased”. The “tumor infiltration of PMN-MDSCs” value (MyC-CaP cells; castrated FVB mice with s.c. MyC-CaP tumors, AZD5069 100 mg/kg i.p., flow cytometry (FIG. 7e)) was “strongly reduced the tumor infiltration of PMN-MDSCs”, the “emergence of CRPC” value (MyC-CaP cells; castrated MyC-CaP allograft mice) was “delayed the emergence of CRPC” and the tumor size (MyC-CaP cells; castrated MyC-CaP allograft mice (FIG. 7g)) was “decreased tumor size”. For the same molecule, the survival (MyC-CaP cells; castrated MyC-CaP allograft mice, Kaplan-Meier (FIG. 7h)) was “longer survival” and the “level of AR target genes in tumors” value (MyC-CaP cells; castrated MyC-CaP allograft mice, qRT-PCR (FIG. 7f)) was “decreased”.

With `CNC(=O)c1ccc(N2C(=S)N(c3ccc(C#N)c(C(F)(F)F)c3)C(=O)C2(C)C)cc1F` [ENZA, Enzalutamide] the “treatment effect (glands, tumor volume, proliferation)” value [4] was “ineffective”.

B1: recombinant IL23: recombinant IL23 (100 ng/ml; R&D System) (protein, UniProt Q9NPF7 20-189; P29460 23-328, looked up)
Interleukin-23 subunit alpha: RAVPGGSSPAWTQCQQLSQKLCTLAWSAHPLVGHMDLREEGDEETTNDVPHIQCGDGCDPQGLRDNSQFCLQRIHQGLIFYEKLLGSDIFTGEPSLLPDSPVGQLHASLLGLSQLLQPEGHHWETQQIPSLSPSQPWQRLLLRFKILRSLQAFVAVAARVFAHGAATLSP
Interleukin-12 subunit beta: IWELKKDVYVVELDWYPDAPGEMVVLTCDTPEEDGITWTLDQSSEVLGSGKTLTIQVKEFGDAGQYTCHKGGEVLSHSLLLLHKKEDGIWSTDILKDQKEPKNKTFLRCEAKNYSGRFTCWWLTTISTDLTFSVKSSRGSSDPQGVTCGAATLSAERVRGDNKEYEYSVECQEDSACPAAEESLPIEVMVDAVHKLKYENYTSSFFIRDIIKPDPPKNLQLKPLKNSRQVEVSWEYPDTWSTPHSYFSLTFCVQVQGKSKREKKDRVFTDKTSATVICRKNASISVRAQDRYYSSSWSEWASVPCS
B1 was tested, and the “cell survival (AnnexinV/7AAD)” value (TRAMP-C1 cells [1]; TRAMP-C1 cells kept in F.A.D., recombinant IL23 100 ng/ml (FIG. 2f-g)) was “promoted”, the “transcription of androgen receptor target genes” value (TRAMP-C1 cells [1]; TRAMP-C1 cells kept in F.A.D., recombinant IL23 100 ng/ml, 24 h, qRT-PCR (FIG. 2h)) was “increased transcription of androgen receptor target genes” and the cell proliferation (TRAMP-C1 cells [1]; TRAMP-C1 cells kept in F.A.D., recombinant IL23 100 ng/ml, 72 h (FIG. 2e)) was “promoted proliferation”.
